From US11000033B2, “Ketone or oxime compound, and herbicide” (NISSAN CHEMICAL CORPORATION, priority 2014, dated 2021)

How the values were obtained:
Format in all cases: in vivo
[1] = test system: Leptochloa chinensis; experiment: Test Example 3: herbicidal effect by foliage application, Wagner pot (symbol D); conditions: application herbicide amount 320 g/ha
Method in brief: (§1)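 Weeds and rice were sown in alluvial soil under 0.1–0.5 cm of standing water and grown for 14 days in a 25–30 °C greenhouse. An emulsion of the compound, diluted in water to a set dose, was sprayed evenly onto the foliage. Effect was scored against fixed criteria 3 weeks after treatment.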

[2] = test system: directly sowed rice plant; experiment: Test Example 3: effect on crop by foliage application, Wagner pot (symbol b); conditions: application herbicide amount 320 g/ha
Method in brief: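 Plants are raised from seed in flooded paddy conditions: water stands 0.1–0.5 cm over alluvial soil, and the pot is kept in a greenhouse at 25–30 °C. Species sown are barnyardgrass (E. crus-galli var. crus-galli), Leptochloa chinensis, Cyperus difformis and rice.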

[3] = test system: Digitaria ciliaris; experiment: Test Example 4: herbicidal effect by soil treatment (symbol F)
Method in brief: (§2)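 Seeds were sown in sterilized diluvial soil, covered with about 1.5 cm of soil, and the soil surface was sprayed with a water-diluted emulsion of the compound at a predetermined rate. Plants grew in a greenhouse at 25° C. to 30° C.; effects were scored visually 3 weeks after application.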

[4] = test system: Echinochloa crus-galli var. crus-galli; experiment: Test Example 4: herbicidal effect by soil treatment (symbol H)
Method in brief: as §2

[5] = test system: Lolium multiflorum Lam.; experiment: Test Example 4: herbicidal effect by soil treatment (symbol K)
Method in brief: as §2

[6] = test system: Abutilon theophrasti; experiment: Test Example 4: herbicidal effect by soil treatment (symbol M)
Method in brief: as §2

[7] = test system: Amaranthus retroflexus; experiment: Test Example 4: herbicidal effect by soil treatment (symbol N)
Method in brief: as §2

[8] = test system: corn; experiment: Test Example 4: effect on crop by soil treatment (symbol c); conditions: for c: corn, effect on crop grade: application herbicide amount 320 g/ha
Method in brief: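 Diluvial soil (sterilized) in boxes; seeds placed spot-wise alongside weed species; ~1.5 cm covering soil. Greenhouse, 25–30° C.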

[9] = test system: soybean; experiment: Test Example 4: effect on crop by soil treatment (symbol d); conditions: for d: soybean, effect on crop grade: application herbicide amount 320 g/ha
Method in brief: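 Soil-treatment setup: crop and weed seeds were spot-sown into sterilized diluvial soil, then buried beneath approximately 1.5 cm of it, and the boxes were housed in a 25–30° C. greenhouse.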

[10] = test system: Setaria viridis; experiment: Test Example 5: herbicidal effect by foliage application, plastic box (symbol G); conditions: 320 g/ha, 3 weeks after application
Method in brief: (§3)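 Leaf-applied emulsion, water-diluted to a preset herbicide dose, on two-week-old seedlings raised in a 25° C. to 30° C. greenhouse; injury rated at 3 weeks using earlier criteria.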

[11] = test system: Avena fatua; experiment: Test Example 5: herbicidal effect by foliage application, plastic box (symbol I); conditions: 320 g/ha, 3 weeks after application
Method in brief: as §3

[12] = test system: Lolium multiflorum Lam.; experiment: Test Example 5: herbicidal effect by foliage application, plastic box (symbol K); conditions: 320 g/ha, 3 weeks after application
Method in brief: as §3

[13] = test system: Apera spica-venti; experiment: Test Example 5: herbicidal effect by foliage application, plastic box (symbol L); conditions: 320 g/ha, 3 weeks after application
Method in brief: as §3

[14] = test system: Abutilon theophrasti; experiment: Test Example 5: herbicidal effect by foliage application, plastic box (symbol M); conditions: 320 g/ha, 3 weeks after application
Method in brief: as §3

[15] = test system: Chenopodium album; experiment: Test Example 5: herbicidal effect by foliage application, plastic box (symbol O); conditions: 320 g/ha, 3 weeks after application
Method in brief: as §3

[16] = test system: Stellaria media; experiment: Test Example 5: herbicidal effect by foliage application, plastic box (symbol P); conditions: 320 g/ha, 3 weeks after application
Method in brief: as §3

[17] = test system: corn; experiment: Test Example 5: effect on crop by foliage application, plastic box (symbol c); conditions: 320 g/ha, 3 weeks after application
Method in brief: (§4)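 Seeds were sown in spots in sterilized diluvial soil held in a plastic box 21 cm × 13 cm × 7 cm deep, covered with about 1.5 cm of soil, and grown in a greenhouse at 25° C. to 30° C.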

[18] = test system: wheat; experiment: Test Example 5: effect on crop by foliage application, plastic box (symbol e); conditions: 320 g/ha, 3 weeks after application
Method in brief: as §4

[19] = test system: beet; experiment: Test Example 5: effect on crop by foliage application, plastic box (symbol f); conditions: 320 g/ha, 3 weeks after application
Method in brief: as §4

[20] = test system: rapeseed; experiment: Test Example 5: effect on crop by foliage application, plastic box (symbol g); conditions: 320 g/ha, 3 weeks after application
Method in brief: as §4

[21] = test system: Cyperus difformis; experiment: Test Example 3: herbicidal effect by foliage application, Wagner pot (symbol E); conditions: application herbicide amount 320 g/ha
Method in brief: as §1

[22] = application herbicide amount 320 g/ha

Compound	herbicidal effect on D (Leptochloa chinensis), grade 0-5 [1]	effect on crop b (directly sowed rice plant), grade 0-5 [2]	herbicidal effect on E, grade 0-5 [21]	F: Digitaria ciliaris, herbicidal effect grade [3, 22]	H: Echinochloa crus-galli var. crus-galli, herbicidal effect grade [4, 22]	K: Lolium multiflorum Lam., herbicidal effect grade [5, 22]	M: Abutilon theophrasti, herbicidal effect grade [6, 22]	N: Amaranthus retroflexus, herbicidal effect grade [7, 22]	c: corn, effect on crop grade [8]	d: soybean, effect on crop grade [9]	G: Setaria viridis, herbicidal effect grade [10]	I: Avena fatua, herbicidal effect grade [11]	K: Lolium multiflorum Lam., herbicidal effect grade [12]	L: Apera spica-venti, herbicidal effect grade [13]	M: Abutilon theophrasti, herbicidal effect grade [14]	P: Stellaria media, herbicidal effect grade [16]	c: corn, effect on crop grade [17]	e: wheat, effect on crop grade [18]	g: rapeseed, effect on crop grade [20]	other results
CON=C(C)CC1CC(OS(=O)(=O)CCCCl)=C(c2c(C)cc(C)cc2C)C1=O (stereo not drawn) [1-142]	5 (Herbicidal ratio of 90% or more (almost completely withered))	5 (Herbicidal ratio of 90% or more (almost completely withered))																		F: Digitaria ciliaris, herbicidal effect grade ([3]; 320 g/ha): 5 (Herbicidal ratio of 90% or more (almost completely withered)); H: Echinochloa crus-galli var. crus-galli, herbicidal effect grade ([4]; 320 g/ha): 5 (Herbicidal ratio of 90% or more (almost completely withered)); K: Lolium multiflorum Lam., herbicidal effect grade ([5]; 320 g/ha): 5 (Herbicidal ratio of 90% or more (almost completely withered)); M: Abutilon theophrasti, herbicidal effect grade ([6]; 320 g/ha): 0 (Herbicidal ratio of 5% or lower (almost no effect)); N: Amaranthus retroflexus, herbicidal effect grade ([7]; 320 g/ha): 0 (Herbicidal ratio of 5% or lower (almost no effect)); c: corn, effect grade on crop ([8]; 320 g/ha): 0 (Herbicidal ratio of 5% or lower (almost no effect)); d: soybean, effect grade on crop ([9]; 320 g/ha): 0 (Herbicidal ratio of 5% or lower (almost no effect)); G: Setaria viridis, herbicidal effect (criteria 0-5) [10]: 5 (Herbicidal ratio of 90% or more (almost completely withered)); I: Avena fatua, herbicidal effect (criteria 0-5) [11]: 5 (Herbicidal ratio of 90% or more (almost completely withered)); K: Lolium multiflorum Lam., herbicidal effect (criteria 0-5) [12]: 5 (Herbicidal ratio of 90% or more (almost completely withered)); L: Apera spica-venti, herbicidal effect (criteria 0-5) [13]: 5 (Herbicidal ratio of 90% or more (almost completely withered)); M: Abutilon theophrasti, herbicidal effect (criteria 0-5) [14]: 4 (Herbicidal ratio of 70% or higher and lower than 90%); O: Chenopodium album, herbicidal effect (criteria 0-5) [15]: 2 (Herbicidal ratio of 20% or higher and lower than 40%); P: Stellaria media, herbicidal effect (criteria 0-5) [16]: 3 (Herbicidal ratio of 40% or higher and lower than 70%); c: corn, effect on crop (criteria 0-5) [17]: 5 (Herbicidal ratio of 90% or more (almost completely withered)); e: wheat, effect on crop (criteria 0-5) [18]: 4 (Herbicidal ratio of 70% or higher and lower than 90%); f: beet, effect on crop (criteria 0-5) [19]: 3 (Herbicidal ratio of 40% or higher and lower than 70%); g: rapeseed, effect on crop (criteria 0-5) [20]: 4 (Herbicidal ratio of 70% or higher and lower than 90%)
Cc1cc(C)c(C2=C(O)CC(CC(=O)C3CC3)C2=O)c(C)c1 (stereo not drawn) [2-017]	5 (Herbicidal ratio of 90% or more (almost completely withered))	5 (Herbicidal ratio of 90% or more (almost completely withered))	5 (Herbicidal ratio of 90% or more (almost completely withered))	5 (Herbicidal ratio of 90% or more (almost completely withered))	5 (Herbicidal ratio of 90% or more (almost completely withered))	5 (Herbicidal ratio of 90% or more (almost completely withered))	4 (Herbicidal ratio of 70% or higher and lower than 90%)	0 (Herbicidal ratio of 5% or lower (almost no effect))	0 (Herbicidal ratio of 5% or lower (almost no effect))	0 (Herbicidal ratio of 5% or lower (almost no effect))	5 (Herbicidal ratio of 90% or more (almost completely withered))	4 (Herbicidal ratio of 70% or higher and lower than 90%)	5 (Herbicidal ratio of 90% or more (almost completely withered))	3 (Herbicidal ratio of 40% or higher and lower than 70%)	1 (Herbicidal ratio of 5% or higher and lower than 20%)	0 (Herbicidal ratio of 5% or lower (almost no effect))	2 (Herbicidal ratio of 20% or higher and lower than 40%)	0 (Herbicidal ratio of 5% or lower (almost no effect))	4 (Herbicidal ratio of 70% or higher and lower than 90%)	f: beet, effect on crop grade [19]: 0 (Herbicidal ratio of 5% or lower (almost no effect))
CCC(=O)CCC1CC(O)=C(c2c(C)cc(C)cc2C)C1=O (stereo not drawn) [5-001]	3 (Herbicidal ratio of 40% or higher and lower than 70%)	5 (Herbicidal ratio of 90% or more (almost completely withered))	0 (Herbicidal ratio of 5% or lower (almost no effect))	4 (Herbicidal ratio of 70% or higher and lower than 90%)	1 (Herbicidal ratio of 5% or higher and lower than 20%)	5 (Herbicidal ratio of 90% or more (almost completely withered))	0 (Herbicidal ratio of 5% or lower (almost no effect))	0 (Herbicidal ratio of 5% or lower (almost no effect))	0 (Herbicidal ratio of 5% or lower (almost no effect))	0 (Herbicidal ratio of 5% or lower (almost no effect))	3 (Herbicidal ratio of 40% or higher and lower than 70%)	4 (Herbicidal ratio of 70% or higher and lower than 90%)	5 (Herbicidal ratio of 90% or more (almost completely withered))	4 (Herbicidal ratio of 70% or higher and lower than 90%)	0 (Herbicidal ratio of 5% or lower (almost no effect))	0 (Herbicidal ratio of 5% or lower (almost no effect))	2 (Herbicidal ratio of 20% or higher and lower than 40%)	0 (Herbicidal ratio of 5% or lower (almost no effect))	0 (Herbicidal ratio of 5% or lower (almost no effect))	
CON=C(C)CC1CC(O)=C(c2c(C)cc(C(=O)OC)cc2C)C1=O (stereo not drawn) [6-023]	5 (Herbicidal ratio of 90% or more (almost completely withered))	5 (Herbicidal ratio of 90% or more (almost completely withered))	4 (Herbicidal ratio of 70% or higher and lower than 90%)	1 (Herbicidal ratio of 5% or higher and lower than 20%)	0 (Herbicidal ratio of 5% or lower (almost no effect))	5 (Herbicidal ratio of 90% or more (almost completely withered))	0 (Herbicidal ratio of 5% or lower (almost no effect))	0 (Herbicidal ratio of 5% or lower (almost no effect))	1 (Herbicidal ratio of 5% or higher and lower than 20%)	0 (Herbicidal ratio of 5% or lower (almost no effect))	5 (Herbicidal ratio of 90% or more (almost completely withered))	5 (Herbicidal ratio of 90% or more (almost completely withered))	5 (Herbicidal ratio of 90% or more (almost completely withered))	4 (Herbicidal ratio of 70% or higher and lower than 90%)	0 (Herbicidal ratio of 5% or lower (almost no effect))	0 (Herbicidal ratio of 5% or lower (almost no effect))	3 (Herbicidal ratio of 40% or higher and lower than 70%)	3 (Herbicidal ratio of 40% or higher and lower than 70%)	3 (Herbicidal ratio of 40% or higher and lower than 70%)	
